# Calls of active or inactive are those of the source.
# How the values were obtained:
# [1] = molecular target: T1, Oxysterols receptor LXR-beta (Homo sapiens, UniProt P55055); assay type: functional, cell-based;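 also: agonist activity at LXR measured by a cell-based luminescence readout across a dose range, run as a counterscreen for daf-12 agonists; HEK293 cells with Gal4-LXR fusion and GAL4-driven luciferase reporter; potency for activation of Gal4-LXR reporter so compounds are agonists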
# T1 sequence (P55055 whole entry): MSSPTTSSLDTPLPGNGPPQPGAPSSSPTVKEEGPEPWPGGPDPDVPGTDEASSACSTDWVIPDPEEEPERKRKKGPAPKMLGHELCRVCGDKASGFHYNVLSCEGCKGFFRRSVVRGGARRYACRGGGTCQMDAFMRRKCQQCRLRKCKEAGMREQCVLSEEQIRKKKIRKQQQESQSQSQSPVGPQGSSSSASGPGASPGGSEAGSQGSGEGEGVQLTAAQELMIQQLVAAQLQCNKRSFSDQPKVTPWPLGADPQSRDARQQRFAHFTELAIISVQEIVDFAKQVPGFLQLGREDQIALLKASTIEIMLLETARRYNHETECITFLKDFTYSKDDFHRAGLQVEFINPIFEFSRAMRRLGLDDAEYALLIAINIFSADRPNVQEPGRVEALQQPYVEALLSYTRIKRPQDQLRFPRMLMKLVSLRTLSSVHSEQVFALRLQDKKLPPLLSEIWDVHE
# [2] = tested on: H4; assay: Luminescence Cell-Based Dose Response HTS to Identify Activators of 5'UTR Stem-Loop Driven Prion Protein mRNA Translation in H4 Neuroglioblastoma Cells. [Related pubchem assays: 1829 (Project Summary), 1814 (Primary HTS)]; assay type: functional; conditions: Homo sapiens
# [3] = Luminescence Cell-Based Dose Response HTS to Identify Activators of Luciferase Translation or Activity in H4 […] Cells. [Related pubchem assays: 1829 (Project Summary), 1814 (Primary HTS)]; assay type: functional
# [4] = cells; assay type: functional, cell-based
# [5] = Luminescence Cell-Based Dose Confirmation HTS to Identify Activators of 5'UTR Stem-Loop Driven Alpha-Synuclein mRNA Translation in H4 Neuroglioblastoma Cells. [Related pubchem assays: 1829 (Project Summary), 1814 (Primary HTS)]; assay type: functional
# [6] = cells; assay type: functional, cell-based; remark: listed apart in the source
# [7] = A375 melanoma cell viability loss, dose response, counter-screen for MITF inhibitor project, CellTiter-Glo luminescence, dry powder, set 4 (AID 624364); assay type: functional, cell-based; conditions: A-375;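 also: A375 melanoma cells are MITF independent so this is a counter screen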
# [8] = A375 melanoma cell cytotoxicity, dose response, counter-screen for MITF inhibitor project, CellTiter-Glo luminescence, dry powder, set 2 (AID 624489); assay type: functional, cell-based; conditions: A-375;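 also: actives are compounds lowering A375 viability meaning general cytotoxicity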
# [9] = control 3'UTR Renilla luciferase suppression, dose response, counter-screen for Shn3 inhibitor project, cell-based, Clone20-Shn3RL, cherry-picked (AID 624133); assay type: functional
# [10] = Shn3 3'UTR reporter inhibitors, dose response, cell-based, Clone20 osteoblasts, firefly luciferase, cherry-picked (AID 624132); assay type: functional;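 also: firefly luciferase luminescence from reporter carrying the Shn3 3'UTR in osteoblasts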
# [11] = inhibitors of control Renilla luciferase reporter, dose response, counter-screen for Shn3 3'UTR targeting project, Clone20-Shn3RL cells, dual-Glo, cherry-pick, set 2 (AID 720724); assay type: functional, cell-based; conditions: Dual-Go Shn3RL
# [12] = HepG2 cell cytotoxicity, dose response, cytotoxicity control for Shn3 inhibitor project, CellTiter-Glo, cherry-picked (AID 624134); assay type: functional, cell-based
# [13] = reduction of Shn3 3'UTR firefly luciferase signal, dose response, Schnurri-3 inhibitor project, cell-based, Clone20 osteoblasts, cherry-pick, set 2 (AID 720490); assay type: functional;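 also: actives lower the luminescence signal as inhibitors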
# [14] = molecular target: Kallikrein-7 (Homo sapiens, UniProt P49862); assay: Fluorescence Intensity-based biochemical primary high throughput dose response assay to identify activators of kallikrein-7 (K7) zymogen.
# [15] = inhibitors of clade B AD8 Env fusion, dose response, cell-based, cherry-pick (AID 652062); assay type: functional;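 also: luciferase signal from cell-cell fusion driven by HIV-1 clade B AD8 Env; potency is for inhibitors of fusion seen as a drop in luminescence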
# [16] = molecular target: T2, Serine/threonine-protein phosphatase (Candida dubliniensis (strain CD36 / CBS 7987 / NCPF 3949 / NRRLY-17841) (Yeast), UniProt B9W6M3); assay: calcineurin pathway inhibitors in yeast reporter, dose response, S. cerevisiae, CDRE-lacZ, luminescence, secondary (AID 2388); assay type: functional, cell-based;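 also: yeast reporter cells carrying a calcineurin-responsive lacZ construct stimulated with calcium chloride; luminescent beta-galactosidase reporter signal in whole cells rather than isolated phosphatase activity; potency for inhibition where a drop in reporter signal means calcineurin blockade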
# T2 sequence (B9W6M3 whole entry): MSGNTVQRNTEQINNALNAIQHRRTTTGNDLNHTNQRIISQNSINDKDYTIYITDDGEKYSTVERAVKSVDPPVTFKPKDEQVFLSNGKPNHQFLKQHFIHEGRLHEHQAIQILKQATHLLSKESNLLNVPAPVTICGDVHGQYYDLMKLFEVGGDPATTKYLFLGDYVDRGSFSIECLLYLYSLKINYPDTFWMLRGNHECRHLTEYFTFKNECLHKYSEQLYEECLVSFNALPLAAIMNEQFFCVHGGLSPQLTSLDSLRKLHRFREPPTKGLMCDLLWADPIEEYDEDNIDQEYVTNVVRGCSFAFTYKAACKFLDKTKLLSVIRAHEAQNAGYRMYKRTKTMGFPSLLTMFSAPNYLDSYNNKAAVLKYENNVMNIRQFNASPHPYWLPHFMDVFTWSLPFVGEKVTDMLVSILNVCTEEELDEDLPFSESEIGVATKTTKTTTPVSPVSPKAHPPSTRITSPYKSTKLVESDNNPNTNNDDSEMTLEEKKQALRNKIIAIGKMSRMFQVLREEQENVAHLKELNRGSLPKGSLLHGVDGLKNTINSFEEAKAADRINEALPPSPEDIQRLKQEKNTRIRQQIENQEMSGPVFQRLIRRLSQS
# [17] = ZM109 Env clade C HIV-1 fusion inhibitors, dose response, HeLa effector, CEM target cells, luciferase, cherry-pick (AID 652058); assay type: functional, cell-based
# [18] = cytotoxicity in HPDE-C7 cells, cell-based, fluorescence, HTS (AID 430); assay type: functional; conditions: Homo sapiens
# [19] = cytotoxicity in HEK-293T cells, dose response, cytotoxicity control for TCR NF-kB inhibitor project, luminescence, T-cell screen hits (AID 489026); assay type: functional, cell-based;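 also: cells exposed to compound about 14 hours before the viability readout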
# [20] = CEM21 lymphoblast cell cytotoxicity, dose response, cytotoxicity control for viral fusion inhibitor project, CellTiter-Glo luminescence, cherry-picked (AID 652042); assay type: functional, cell-based;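 also: potency for signal decrease meaning cytotoxicity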
# [21] = C. albicans growth with fluconazole, confirmation, fluorescence, retest (AID 2467); assay type: functional, cell-based
# [22] = molecular target: COUP transcription factor 2 (Homo sapiens, UniProt P24468); assay: Luminescence-based cell-based high throughput dose response assay to identify inhibitors of COUP-TFII (NR2F2).; assay type: functional;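 also: HEK293 cells transiently cotransfected with COUP-TFII expression vector and reporter; luciferase reporter luminescence driven by COUP-TFII from the pX2-168 reporter plasmid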
# [23] = molecular target: T3, Short transient receptor potential channel 4 (Mus musculus, UniProt Q9QUQ5); assay: mouse TRPC4 channel activators, dose response, cell-based, HEK293 TRPC4/mu-opioid, Fluo-4 calcium (AID 434937); assay type: functional
# T3 sequence (Q9QUQ5 whole entry): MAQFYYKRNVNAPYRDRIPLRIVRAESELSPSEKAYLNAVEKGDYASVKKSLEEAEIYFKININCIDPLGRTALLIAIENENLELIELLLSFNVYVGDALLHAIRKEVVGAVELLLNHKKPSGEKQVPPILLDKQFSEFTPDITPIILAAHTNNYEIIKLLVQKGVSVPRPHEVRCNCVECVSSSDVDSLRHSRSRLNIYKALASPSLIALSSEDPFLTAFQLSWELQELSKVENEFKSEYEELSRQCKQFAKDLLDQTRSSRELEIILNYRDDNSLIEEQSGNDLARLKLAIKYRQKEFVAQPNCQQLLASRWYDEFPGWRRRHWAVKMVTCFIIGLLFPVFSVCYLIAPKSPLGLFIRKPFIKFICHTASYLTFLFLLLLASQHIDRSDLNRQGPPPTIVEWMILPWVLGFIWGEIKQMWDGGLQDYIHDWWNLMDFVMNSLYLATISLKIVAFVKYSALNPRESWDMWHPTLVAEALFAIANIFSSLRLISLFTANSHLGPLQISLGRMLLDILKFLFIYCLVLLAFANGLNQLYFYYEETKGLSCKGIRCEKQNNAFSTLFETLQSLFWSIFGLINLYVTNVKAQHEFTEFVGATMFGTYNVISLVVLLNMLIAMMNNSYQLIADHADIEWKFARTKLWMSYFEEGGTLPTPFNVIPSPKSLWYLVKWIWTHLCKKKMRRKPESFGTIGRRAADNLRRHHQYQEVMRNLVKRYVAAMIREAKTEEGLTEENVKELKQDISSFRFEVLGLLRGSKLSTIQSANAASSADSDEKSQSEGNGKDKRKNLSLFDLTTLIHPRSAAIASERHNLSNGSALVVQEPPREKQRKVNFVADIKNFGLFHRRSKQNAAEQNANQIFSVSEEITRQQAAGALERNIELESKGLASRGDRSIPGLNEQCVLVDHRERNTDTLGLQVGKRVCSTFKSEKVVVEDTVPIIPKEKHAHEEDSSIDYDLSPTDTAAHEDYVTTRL
# [24] = NIH-3T3 fibroblast cytotoxicity, dose response, cytotoxicity control, cell-based, fluorescence, Alamar Blue, secondary assay (AID 2327); assay type: functional;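 also: NIH-3T3 mouse fibroblasts cultured with fluconazole at 8 µg/mL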
# [25] = cytotoxicity in KRAS-transformed pancreatic duct cells, primary screen, cell-based, fluorescence, HTS (AID 431); assay type: functional; conditions: Homo sapiens;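 also: cell line used: HPDE-C7K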
# [26] = molecular target: ATP-dependent molecular chaperone HSP82 (Candida albicans (strain WO-1) (Yeast), UniProt C4YTQ8); assay: loss of DOC-induced GRE-beta-galactosidase reporter signal, dose response, Hsp90 inhibitor project, S. cerevisiae, luminescence (AID 2400); assay type: functional, cell-based;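 also: beta-galactosidase luminescence from glucocorticoid response element reporter as proxy for Hsp90 function; inhibitor potency where signal loss means Hsp90 inhibition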
# Chain of ATP-dependent molecular chaperone HSP82 (C4YTQ8 whole entry): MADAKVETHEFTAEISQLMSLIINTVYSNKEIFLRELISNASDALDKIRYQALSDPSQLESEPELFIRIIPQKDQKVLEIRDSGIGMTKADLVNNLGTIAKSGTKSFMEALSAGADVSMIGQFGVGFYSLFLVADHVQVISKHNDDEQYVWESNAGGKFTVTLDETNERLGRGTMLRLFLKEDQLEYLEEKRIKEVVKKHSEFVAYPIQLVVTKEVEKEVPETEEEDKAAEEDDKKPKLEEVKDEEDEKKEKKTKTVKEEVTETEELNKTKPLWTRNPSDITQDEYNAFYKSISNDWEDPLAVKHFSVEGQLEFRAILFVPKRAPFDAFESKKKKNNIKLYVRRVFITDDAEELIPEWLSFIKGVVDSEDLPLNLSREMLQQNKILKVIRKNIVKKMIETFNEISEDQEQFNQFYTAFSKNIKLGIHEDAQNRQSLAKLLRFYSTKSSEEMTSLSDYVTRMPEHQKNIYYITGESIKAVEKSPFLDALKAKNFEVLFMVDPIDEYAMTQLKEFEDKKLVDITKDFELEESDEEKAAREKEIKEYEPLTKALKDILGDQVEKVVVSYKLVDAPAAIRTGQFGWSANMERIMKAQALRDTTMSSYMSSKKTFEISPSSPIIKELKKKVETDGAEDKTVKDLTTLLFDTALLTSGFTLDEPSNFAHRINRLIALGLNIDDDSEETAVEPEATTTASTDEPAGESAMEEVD
# Chain of Kallikrein-7 (P49862 whole entry, the tested form may be a part): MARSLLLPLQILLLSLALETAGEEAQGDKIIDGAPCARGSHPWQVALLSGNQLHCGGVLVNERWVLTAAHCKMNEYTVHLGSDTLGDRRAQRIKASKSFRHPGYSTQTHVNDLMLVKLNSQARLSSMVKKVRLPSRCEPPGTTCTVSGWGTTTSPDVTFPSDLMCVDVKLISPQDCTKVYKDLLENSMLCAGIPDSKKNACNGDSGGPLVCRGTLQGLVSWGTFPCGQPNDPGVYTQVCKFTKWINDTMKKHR
# Chain of COUP transcription factor 2 (P24468 whole entry): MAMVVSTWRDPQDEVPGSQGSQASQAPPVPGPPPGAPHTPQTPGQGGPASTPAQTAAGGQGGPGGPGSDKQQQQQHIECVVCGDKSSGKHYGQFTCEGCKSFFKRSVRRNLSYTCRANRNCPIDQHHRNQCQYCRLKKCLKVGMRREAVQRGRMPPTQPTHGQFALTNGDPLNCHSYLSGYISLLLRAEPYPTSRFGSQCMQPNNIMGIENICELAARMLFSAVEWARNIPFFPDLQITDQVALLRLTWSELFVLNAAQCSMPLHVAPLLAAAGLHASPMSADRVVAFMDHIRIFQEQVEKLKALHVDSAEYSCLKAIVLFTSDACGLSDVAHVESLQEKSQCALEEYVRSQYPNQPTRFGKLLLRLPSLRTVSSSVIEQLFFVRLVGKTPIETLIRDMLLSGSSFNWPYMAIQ
structure (smiles),measurement,setting,value
Cc1ccc(NC(S)=NC(=NS(=O)(=O)c2ccccc2)c2ccccc2)cc1,EC50,[1],> 67.5 µM (inactive)
same,EC50,[2],6.51 µM (active)
same,EC50,[3],16.5 µM (active)
same,EC50,[4],> 350 µM (not active)
same,EC50,[5],5.09 µM (active)
same,EC50,[6],202 µM (active)
COc1ccc(C2=C(NC(=O)c3ccc4ccccc4c3)C(=O)c3ccccc3C2=O)cc1,AC50,[7],> 70 µM (inactive)
same,AC50,[8],> 70 µM (inactive)
CCn1cc(CN(C)S(=O)(=O)c2ccc3ccccc3c2)c(C)n1,AC50,[9],22.8 µM (active)
same,AC50,[10],1.56 µM (active)
same,AC50,[11],1.8 µM (active)
same,AC50,[12],39.4 µM (active)
same,AC50,[13],2.23 µM (active)
COCCNC(=O)Cc1c(C)c2cc3c(cc2oc1=O)OC(C)(C)CC3,EC50,[14],> 69.6 µM (inactive)
c1ccc2c(c1)CCN(c1[nH]cnc3c4ccccc4nc1-3)C2,AC50,[15],4.09 µM (active)
same,EC50,[16],> 180 µM (inactive)
same,AC50,[17],2.62 µM (active)
same,EC50,[18],17.7 µM (active)
same,IC50,[19],21 µM (inactive)
same,AC50,[20],64.8 µM (active)
same,EC50,[21],1.01 µM (active)
same,IC50,[22],4.69 µM (active)
same,EC50,[23],5.96 µM (active)
same,EC50,[24],> 150 µM (inactive)
same,EC50,[25],> 20 µM (not active)
same,EC50,[26],> 150 µM (inactive)

# From ChEMBL document CHEMBL1201862, “PubChem BioAssay data set” (2004)
